# Reference: ChEMBL document CHEMBL2203035, “Synthesis and docking studies of novel antitumor benzimidazoles” (Bioorg Med Chem, 2012)
# Tests used:
# [1] = target: Urokinase plasminogen activator surface receptor (Homo sapiens, UniProt Q03405); assay: Binding affinity to uPAR
# Raji [2] = assay: Inhibition of tumor promotion in human Raji cells assessed as TPA-induced Epstein-Barr virus early antigen activation at 10 mol ratio/TPA after 48 hrs by indirect immunofluorescence analysis relative to TPA alone; assay type: functional; set-up: scale not given: the % may be the effect or the level left
# Raji [3] = assay: Inhibition of tumor promotion in human Raji cells assessed as TPA-induced Epstein-Barr virus early antigen activation at 100 mol ratio/TPA after 48 hrs by indirect immunofluorescence analysis relative to TPA alone; assay type: functional; set-up: scale not given: the % may be the effect or the level left
# Raji [4] = assay: Inhibition of tumor promotion in human Raji cells assessed as TPA-induced Epstein-Barr virus early antigen activation at 500 mol ratio/TPA after 48 hrs by indirect immunofluorescence analysis relative to TPA alone; assay type: functional; set-up: scale not given: the % may be the effect or the level left
# Raji [5] = assay: Inhibition of tumor promotion in human Raji cells assessed as TPA-induced Epstein-Barr virus early antigen activation at 1000 mol ratio/TPA after 48 hrs by indirect immunofluorescence analysis relative to TPA alone; assay type: functional; set-up: scale not given: the % may be the effect or the level left
# A549 [6] = assay: Cytotoxicity against human A549 cells after 72 hrs by alamar blue assay; assay type: functional, cell-based; conditions: A549, 72 h
# A549 [7] = assay: Downregulation of uPA protein expression in human A549 cell extract at 0.40 uM after 48 hrs by ELISA (reference value: 11.0000 +/-1.60 ng/ml); assay type: functional
# A549 [8] = assay: Downregulation of uPA protein expression in human A549 cell extract at 0.20 uM after 48 hrs by ELISA (reference value: 11.0000 +/-1.60 ng/ml); assay type: functional
# A549 [9] = assay: Downregulation of uPA protein expression in human A549 cell extract at 0.10 uM after 48 hrs by ELISA (reference value: 11.0000 +/-1.60 ng/ml); assay type: functional
# A549 [10] = assay: Downregulation of uPA protein expression in human A549 cell extract at 0.05 uM after 48 hrs by ELISA (reference value: 11.0000 +/-1.60 ng/ml); assay type: functional
# MCF7 [11] = assay: cells; conditions: Homo sapiens, MCF7, 48 h
# Description: Cytotoxicity against human MCF7 cells after 48 hrs by sulforhodamine B assay
# A549 [12] = assay: Downregulation of uPA protein expression in human A549 cell extract at 1.10 uM after 48 hrs by ELISA; assay type: functional
# A549 [13] = assay: Downregulation of uPA protein expression in human A549 cell extract at 0.55 uM after 48 hrs by ELISA; assay type: functional
# A549 [14] = assay: Downregulation of uPA protein expression in human A549 cell extract at 0.275 uM after 48 hrs by ELISA; assay type: functional
# A549 [15] = assay: Downregulation of uPA protein expression in human A549 cell extract at 0.137 uM after 48 hrs by ELISA; assay type: functional
# MCF7 [16] = assay: Downregulation of uPA protein expression in human MCF7 cell extract at 0.35 uM after 48 hrs by ELISA (reference value: 1 1.4000 +/- 1.40 ng/ml); assay type: functional
# MCF7 [17] = assay: Downregulation of uPA protein expression in human MCF7 cell extract at 0.175 uM after 48 hrs by ELISA (reference value: 1 1.4000 +/- 1.40 ng/ml); assay type: functional
# MCF7 [18] = assay: Downregulation of uPA protein expression in human MCF7 cell extract at 0.087 uM after 48 hrs by ELISA (reference value: 1 1.4000 +/- 1.40 ng/ml); assay type: functional
# A549 [19] = assay: Downregulation of uPA protein expression in human A549 cell extract at 1.10 uM after 48 hrs by ELISA (reference value: 11.0000 +/-1.60 ng/ml); assay type: functional
# A549 [20] = assay: Downregulation of uPA protein expression in human A549 cell extract at 0.55 uM after 48 hrs by ELISA (reference value: 11.0000 +/-1.60 ng/ml); assay type: functional
# A549 [21] = assay: Downregulation of uPA protein expression in human A549 cell extract at 0.275 uM after 48 hrs by ELISA (reference value: 11.0000 +/-1.60 ng/ml); assay type: functional
# A549 [22] = assay: Downregulation of uPA protein expression in human A549 cell extract at 0.137 uM after 48 hrs by ELISA (reference value: 11.0000 +/-1.60 ng/ml); assay type: functional
# MCF7 [23] = assay: Downregulation of uPA protein expression in human MCF7 cell extract at 0.70 ug/well after 48 hrs by ELISA (reference value: 1 1.4000 +/- 1.40 ng/ml)
# MCF7 [24] = assay: Downregulation of uPA protein expression in human MCF7 cell extract at 0.60 uM after 48 hrs by ELISA (reference value: 1 1.4000 +/- 1.40 ng/ml); assay type: functional
# MCF7 [25] = assay: Downregulation of uPA protein expression in human MCF7 cell extract at 0.30 uM after 48 hrs by ELISA (reference value: 1 1.4000 +/- 1.40 ng/ml); assay type: functional
# MCF7 [26] = assay: Downregulation of uPA protein expression in human MCF7 cell extract at 0.15 uM after 48 hrs by ELISA (reference value: 1 1.4000 +/- 1.40 ng/ml); assay type: functional
# MCF7 [27] = assay: Downregulation of uPA protein expression in human MCF7 cell extract at 0.075 uM after 48 hrs by ELISA (reference value: 1 1.4000 +/- 1.40 ng/ml); assay type: functional
# Chain of Urokinase plasminogen activator surface receptor (Q03405 whole entry): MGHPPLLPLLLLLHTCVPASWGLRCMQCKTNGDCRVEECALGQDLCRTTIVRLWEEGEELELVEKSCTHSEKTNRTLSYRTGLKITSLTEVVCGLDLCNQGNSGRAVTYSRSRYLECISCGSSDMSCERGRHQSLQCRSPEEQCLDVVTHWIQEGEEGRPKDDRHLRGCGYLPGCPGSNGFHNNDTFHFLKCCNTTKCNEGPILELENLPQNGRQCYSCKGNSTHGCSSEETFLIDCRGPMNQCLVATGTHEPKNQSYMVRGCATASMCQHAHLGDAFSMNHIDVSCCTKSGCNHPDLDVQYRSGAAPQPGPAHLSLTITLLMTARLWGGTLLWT
Ki [1] [nM],IC50 (MCF7 [11]) [µg/well],Compound,Activity (Raji [2]) [%],Activity (Raji [3]) [%],Activity (Raji [4]) [%],Activity (Raji [5]) [%],IC50 (A549 [6]) [nM],also measured
0.00217,0.972,Nc1c(-c2nc3ccccc3[nH]2)cc(-c2ccccc2)n1Cc1nc2ccccc2[nH]1,100,82.6,48.3,18.7,5100,
0.00153,1.62,Nc1c(-c2nc3ccccc3[nH]2)cc(-c2ccccc2)n1-c1nc2ccccc2[nH]1,100,80,48.2,16.3,7700,
0.012,2.12,Nc1c(-c2nc3ccccc3[nH]2)cc(-c2ccccc2)n1-c1cccc(Br)c1,100,84,49.9,19.2,13500,
0.00653,0.934,Nc1c(-c2nc3ccccc3[nH]2)cc(-c2ccccc2)n1-c1ccccn1,100,79.1,47.3,15.9,8000,
0.001,0.705,Nc1c(-c2nc3ccccc3[nH]2)cc(-c2ccccc2)n1-c1ccncc1,100,78.6,46.9,15.3,1100,Activity (A549 [12]): 75%; Activity (A549 [13]): 56%; Activity (A549 [14]): 53%; Activity (A549 [15]): 44%; Activity (MCF7 [16]): 9 ng/mL; Activity (MCF7 [17]): 8.7 ng/mL; Activity (MCF7 [18]): 9.8 ng/mL; Activity (A549 [19]): 2.7 ng/mL; Activity (A549 [20]): 4.8 ng/mL; Activity (A549 [21]): 5.2 ng/mL; Activity (A549 [22]): 6.2 ng/mL; Activity (MCF7 [23]): 9.4 ng/mL
0.0044,1.7,Nc1c(-c2nc3ccccc3[nH]2)cc(-c2ccccc2)n1-c1cccc(Cl)c1,100,80.1,48.3,17.8,7000,
0.011,0.82,Nc1c(-c2nc3ccccc3[nH]2)cc(-c2ccccc2)n1-c1ccc(Br)cc1,100,83.2,48,18.9,12000,
0.00445,0.934,Nc1c(-c2nc3ccccc3[nH]2)cc(-c2ccccc2)n1-c1ccc(Cl)cc1,100,85.6,50.3,20.1,9900,
0.00302,1.28,N#Cc1cc(-c2ccccc2)n(-c2nc3ccccc3[nH]2)c1N,100,83.5,49.6,19.7,12100,
0.00636,1.66,O=C1NC2=Nc3ccccc3N(Cc3nc4ccccc4[nH]3)C2=Nc2ccccc21,100,85.6,53.1,20.5,8500,
0.0333,,N#Cc1cc(-c2ccccc2)n(-c2ccccn2)c1N,,,,,32000,

# More lines, now with the values behind:
Compound,Ki [1] [nM],IC50 (MCF7 [11]) [µg/well],Activity (Raji [2]) [%],Activity (Raji [3]) [%],Activity (Raji [4]) [%],Activity (Raji [5]) [%],IC50 (A549 [6]) [nM],also measured
Nc1nc2ccccc2[nH]c1=O,20.8,,100,78.1,46.3,12.6,9100,
CO[C@@]12[C@H](COC(N)=O)C3=C(C(=O)C(C)=C(N)C3=O)N1C[C@@H]1N[C@@H]12 [MITOMYCIN],,,,,,,,Activity (A549 [7]): 2.4 ng/mL; Activity (A549 [8]): 2.6 ng/mL; Activity (A549 [9]): 3.3 ng/mL; Activity (A549 [10]): 4.3 ng/mL
N#Cc1cc(-c2ccccc2)n(-c2cccc(Br)c2)c1N,0.00411,,,,,,13000,
N#Cc1cc(-c2ccccc2)n(-c2ccc(Br)cc2)c1N,0.00327,,,,,,4600,
COc1cccc2c1C(=O)c1c(O)c3c(c(O)c1C2=O)C[C@@](O)(C(=O)CO)C[C@@H]3O[C@H]1C[C@H](N)[C@H](O)[C@H](C)O1 [DOXORUBICIN],,,,,,,,Activity (MCF7 [24]): 2.75 ng/mL; Activity (MCF7 [25]): 3 ng/mL; Activity (MCF7 [26]): 3.2 ng/mL; Activity (MCF7 [27]): 3.4 ng/mL
N#CC(C#N)CC(=O)c1ccccc1,0.296,,,,,,9700,
N#Cc1cc(-c2ccccc2)n(-c2cccc(Cl)c2)c1N,0.00227,,,,,,8000,
CC/C(=C(\c1ccccc1)c1ccc(OCCN(C)C)cc1)c1ccccc1 [TAMOXIFEN],,1.82,,,,,,
CC1(C)CC[C@]2(C(=O)O)CC[C@]3(C)C(=CC[C@@H]4[C@@]5(C)CC[C@H](O)C(C)(C)[C@@H]5CC[C@]43C)[C@@H]2C1 [OLEANOLIC_ACID],,,100,80,30,12.7,,
N#Cc1cc(-c2ccccc2)n(-c2ccc(Cl)cc2)c1N,0.00329,,,,,,7700,
CCOC(=O)Cn1c(CN2C3=Nc4ccccc4C(=O)NC3=Nc3ccccc32)nc2ccccc21,0.0017,0.934,100,74.4,43.7,10.3,8400,
N#Cc1cc(-c2ccccc2)n(-c2ccncc2)c1N,0.00759,,,,,,10700,
O=C1NC2=Nc3ccccc3NC2=Nc2ccccc21,1.33,1.39,100,86.3,54.6,22.6,13200,
